How the values were obtained:
[1] = Storage under elevated atmospheric humidity, samples investigated by Raman spectroscopy; type: physicochemical; conditions: room temperature, 75% relative atmospheric humidity
Source text: The amorphous form according to Example B1 is stored at room temperature and 75% relative atmospheric humidity and samples are investigated after 2 days, 1, 2, 3, 4 and 8 weeks using Raman spectroscopy. […] The same mixture is still observed after 8 weeks.
The maleate produced according to Example A1 is stored at room temperature and 75% relative atmospheric humidity and samples are investigated after 3 days, 1, 2, 3, 4, 8 and 10 weeks using Raman spectroscopy.
The crystalline form B produced according to Example D1 is stored at room temperature and 75% relative atmospheric humidity and samples are investigated after 3 days, 1, 2, 3, 4 and 8 weeks using Raman spectroscopy.
FT Raman spectra are recorded using a Bruker RFS 100 FT-Raman system, which is operated with an Nd:YAG laser (wavelength 1064 nm) and a germanium detector cooled with liquid nitrogen. For each sample, 64 scans are accumulated with a resolution of 2 cm^−1. In general, a laser power of 100 mW is used.

[2] = Water absorption by Dynamic Vapour Sorption (Example E6); type: physicochemical; conditions: 25° C.; for Crystalline form at the end of the DVS measuring cycle: maleate; for Water absorption: DVS
Description: (§1) Water absorption is determined by means of dynamic water vapour absorption (Dynamic Vapour Sorption, DVS) using apparatus DVS-1 from Surface Measurement System Ltd. The sample is placed in a platinum crucible at the tip of a microchemical balance. Then the sample is firstly equilibrated at 50% relative atmospheric humidity and then subjected to a predefined measuring program. The temperature is 25° C. The change in weight of the sample is determined.

[3] = Storage of amorphous form at room temperature and 20% or 90% atmospheric humidity for 24 hours; type: physicochemical; conditions: 20 mg, room temperature
[4] = Stability under pressure (tablet pressing); type: physicochemical; conditions: tablet press, vacuum, 100 MPa, 60 minutes
Description: The maleate produced according to Example A1 is introduced into a tablet press and pressed under a vacuum at a pressure of 100 MPa for 60 minutes to form a tablet.
The procedure is carried out in accordance with Example E5a) with crystalline form B according to Example D1.

[5] = Damp storage and drying of maleate and hydrochloride (XRD, DSC, dry weight, Karl-Fischer water content); type: physicochemical; conditions: for Change in crystalline form by X-ray diffraction pattern: after damp storage (25° C., 75% and 95% R.H., 7 days) and drying (50° C., vacuum, 7 days)
Description: Maleate and hydrochloride according to Example E8 are stored firstly at 25° C. and 75% and 95% relative atmospheric humidity for 7 days and thereafter are dried for 7 days in the drying cabinet at 50° C. under a vacuum. Before storage begins, X-ray diffraction patterns (XRD) are recorded, DSC performed to determine transition points (Tp), dry weight (DW) and the Karl-Fischer water content (WC) are determined and the same values again after damp storage and drying. The X-ray diffraction patterns show no change in crystalline forms A and D after damp storage and drying. The initial vales for the hydrochloride are Tp=116.27° C., DW=6.35% and WC 8.00%. The initial values for the maleate are Tp=170.4° C. and 179.85° C., DW=0 and WC=0.2%. The results are given in Tables 3 (75% relative atmospheric humidity) and 4 (95% relative atmospheric humidity).

[6] = General properties stated in the description (solubility, hygroscopicity)
[7] = Water absorption of maleate and hydrochloride by DVS (Example E8, comparison); type: physicochemical; conditions: 25° C.
Description: as §1, with “determined after a stepwise increase in relative atmospheric humidity by 10% steps up to 90%.” for “determined.”

[8] = Stability at elevated temperature in open and closed vessels (HPLC, FT Raman); type: physicochemical
Description: The crystalline forms are stored in open and closed vessels and, after a predetermined time, possible changes are measured chromatographically (HPLC) as stability parameters.

[9] = Stability under grinding conditions (trituration, ball mill); type: physicochemical
Description: The maleate produced according to Example A1 is triturated with a pestle in a mortar for 5 minutes. […] Amorphous fractions are not observed.
Crystalline form B according to Example D1 is triturated with a pestle in a mortar for 5 minutes.
The maleate produced according to Example A1 is introduced into an agate ball mill (Retsch MM200 mixing mill with 5 mm agate ball) and ground at 20 Hz and room temperature for 180 minutes. […] Amorphous fractions are not observed.
The procedure is carried out in accordance with Example E4c) with crystalline form B according to Example D1.

[10] = 75% R.H. storage, then dried 7 days at 50° C. under vacuum
[11] = 95% R.H. storage, then dried 7 days at 50° C. under vacuum
[12] = after damp storage, 25° C., 75% relative atmospheric humidity, 7 days
[13] = after damp storage, 25° C., 95% relative atmospheric humidity, 7 days
[14] = 40° C./75% R.H., 1 week, maleate
[15] = 60° C. (closed), 1 week, maleate
[16] = 60° C. (closed), 4 weeks, maleate
[17] = 60° C./75% R.H., 4 weeks, maleate

SMILES | Crystalline form found by Raman spectroscopy after storage ([1]; after 8 weeks, maleate) | Crystalline form at the end of the DVS measuring cycle [2] | Tp [5, 10] | WC [5, 10] | WC [5, 11] | Change in crystalline form by X-ray diffraction pattern [5] | Tp [5, 12] | WC [5, 12] | WC [5, 13] | DW (dry weight) ([5]; initial value, before storage) | WC (Karl-Fischer water content) ([5]; initial value, before storage) | Hygroscopicity [6] | Solubility in polar solvents [6] | Water absorption ([2]; measuring cycle) | HPLC [8, 14] | HPLC [8, 15] | HPLC [8, 16] | HPLC [8, 17] | HPLC ([8]; −18° C. (reference), 4 weeks) | also measured
CN(C)C[C@@H]1CCCC[C@H]1c1cccc(O)c1.O=C(O)/C=C\C(=O)O [amorphous form, (+)-(1R,2R)-3-[2-(dimethylamino)methyl-(cyclohex-1-yl)]-phenol maleate] | same mixture | mixture of crystalline forms A and B |  |  |  |  |  |  |  |  |  |  |  |  |  |  |  |  |  | Crystalline form found by Raman spectroscopy after storage ([1]; after 2 days): mixture of crystalline forms A and B; Water absorption ([2]; up to approx. 33% relative atmospheric humidity): approx. 2.2 wt. %; Form obtained after storage ([3]; 20% atmospheric humidity): mixture of crystalline forms A and B; Form obtained after storage ([3]; 90% atmospheric humidity): only crystalline form A
CN(C)C[C@@H]1CCCC[C@H]1c1cccc(O)c1.O=C(O)/C=C\C(=O)O [Crystalline form A, (+)-(1R,2R)-3-[2-(dimethylamino)methyl-(cyclohex-1-yl)]-phenol maleate] |  | unchanged crystalline form A | 165.33 °C | 0.20% | 0.50% | no change | 165.41 °C | 0.20% | 0.20% | 0% | 0.2% | non-hygroscopic | very good | approx. 0.2 wt. % | 100.2% | 100.2% | 100.5% | 100.3% | 100% | Crystalline form after tablet pressing ([4]; listed as Example A1, maleate): unchanged form; Crystalline form found by Raman spectroscopy after storage ([1]; after 10 weeks): virtually unchanged; Release of the absorbed moisture ([7]; at approx. 10% relative atmospheric humidity): released again completely; Water absorption ([7]; relative atmospheric humidity raised in 10% steps up to 90%): 0.06%; Stability at elevated temperature (summary) ([8]; storage in open and closed vessels): very stable with regard to chemical stability and crystal shape; Amorphous fractions after grinding ([9]; agate ball mill, 20 Hz, room temperature, 180 minutes): not observed; Crystalline form after grinding ([9]; agate ball mill, 20 Hz, room temperature, 180 minutes, listed as Example A1, maleate): unchanged form; Amorphous fractions after trituration ([9]; pestle in a mortar, 5 minutes): not observed; Crystalline form after trituration ([9]; pestle in a mortar, 5 minutes, listed as Example A1, maleate): unchanged form
CN(C)C[C@@H]1CCCC[C@H]1c1cccc(O)c1.Cl [Hydrochloride, (+)-(1R,2R)-3-[2-(dimethylamino)methyl-(cyclohex-1-yl)]-phenol hydrochloride] |  |  | 113.83 °C | 6.00% | 6.60% | no change | 116.22 °C | 8.50% | 8.50% | 6.35% | 8.00% | decidedly hygroscopic |  |  |  |  |  |  |  | DW [5, 10]: 6.12%; DW [5, 11]: 6.74; Tp [5, 11]: 114.47 °C; DW [5, 12]: 5.92%; DW [5, 13]: 7.84%; Tp [5, 13]: 116.52 °C; Tp (transition point, DSC) ([5]; initial value, before storage): 116.27 °C; Water absorption altogether ([7]; further increase to 90% relative atmospheric humidity): approx. 5 wt. %; Water absorption ([7]; relative atmospheric humidity increased to approx. 75%): approx. 2 wt. %; Water released on desorption altogether ([7]; relative atmospheric humidity lowered in 10% steps): 8.5%
CN(C)C[C@@H]1CCCC[C@H]1c1cccc(O)c1.O=C(O)/C=C\C(=O)O [Crystalline form B, (+)-(1R,2R)-3-[2-(dimethylamino)methyl-(cyclohex-1-yl)]-phenol maleate] | virtually unchanged | mixture of crystalline forms A and B |  |  |  |  |  |  |  |  |  |  | very good | approx. 0.2 wt. % | 100.3% | 100.6% | 100.9% | 101.1% | 100% | Crystalline form after tablet pressing ([4]; maleate): mixture of crystalline forms A and B; FT Raman (determination of crystalline form) ([8]; 40° C./75% R.H., 1 week): A and B; FT Raman (determination of crystalline form) ([8]; 60° C. (closed), 1 week): A and B; FT Raman (determination of crystalline form) ([8]; 60° C. (closed), 4 weeks): A and B; FT Raman (determination of crystalline form) ([8]; 60° C./75% R.H., 4 weeks): A and B; FT Raman (determination of crystalline form) ([8]; −18° C. (reference), 4 weeks): A and B; Crystalline form after grinding ([9]; agate ball mill, 20 Hz, room temperature, 180 minutes, maleate): mixture of crystalline forms A and B; Crystalline form after trituration ([9]; pestle in a mortar, 5 minutes, maleate): mixture of crystalline forms A and B

Source: patent publication US7884247B2, “Salt of dimethylaminomethyl-phenyl-cyclohexane and crystalline forms thereof” (Gruenenthal GmbH, priority 2005, dated 2011)
